Consider 19 molecules from patent publication US9499538B2, “Estrogen receptor modulators and uses thereof” (Seragon Pharmaceuticals, Inc., priority 2012, dated 2016).

One experiment has as its system MCF-7 cells. In words: Breast Cancer Cell Viability Assays (MCF-7, CellTiter-Glo). It is filed as cell-based. Conditions: 5 days' compound exposure; for IC50: Homo sapiens, MCF7, 120 h. In a few lines:
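MCF-7 cells (320/well, RPMI with 10% FBS) exposed for 5 days to an eleven-point semilog series, 0.3–0.000003 μM final. Viability read by CellTiter-Glo luminescence, expressed as background-corrected percent of untreated cells.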
(In general: In ATP-based viability assays light output follows the ATP content of the culture.)

In another experiment the target is T1, ER-α in MCF-7 cells (Homo sapiens, UniProt P03372).
T1 construct: endogenous in cells; host or cells: MCF-7
T1 sequence (P03372 1-595): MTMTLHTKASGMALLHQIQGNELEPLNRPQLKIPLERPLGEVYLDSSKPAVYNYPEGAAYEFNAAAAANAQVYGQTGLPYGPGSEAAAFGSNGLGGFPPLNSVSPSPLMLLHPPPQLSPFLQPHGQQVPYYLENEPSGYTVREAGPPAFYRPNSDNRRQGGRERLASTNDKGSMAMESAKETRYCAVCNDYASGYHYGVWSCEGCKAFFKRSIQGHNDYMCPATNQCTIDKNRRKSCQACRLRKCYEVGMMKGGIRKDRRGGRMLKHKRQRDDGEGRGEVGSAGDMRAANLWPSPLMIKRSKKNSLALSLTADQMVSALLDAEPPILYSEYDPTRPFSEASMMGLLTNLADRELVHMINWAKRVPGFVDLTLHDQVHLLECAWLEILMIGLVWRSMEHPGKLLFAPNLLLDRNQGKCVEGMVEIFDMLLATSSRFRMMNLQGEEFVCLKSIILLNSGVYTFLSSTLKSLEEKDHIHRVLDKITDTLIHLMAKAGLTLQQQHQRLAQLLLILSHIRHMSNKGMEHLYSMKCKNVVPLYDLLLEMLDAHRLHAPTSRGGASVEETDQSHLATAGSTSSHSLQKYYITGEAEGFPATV
Briefly: Breast Cancer Cell ER-α In Cell Western Assay (SP1). It is filed as cell-based. Conditions: 4 or 24 hr post compound addition; for Emax: MCF7, SP1 antibody, read-out: ER-α In Cell Western Assay (SP1) Max Response; for DC50: SP1 antibody, read-out: ER-α In Cell Western Assay (SP1) IC50. In a few lines: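 MCF-7 cells in charcoal-stripped FBS medium, treated with 11-point semilog dilutions (0.3–0.000003 μM final) for 4 or 24 h. Fixed cells immunostained with SP1 antibody (800 nm) and DRAQ5 DNA (700 nm); ER/DNA ratio expressed as % of untreated cells.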

`COc1cccc(/C(=C(\c2ccc(/C=C/C(=O)O)cc2)c2ccc3scnc3c2)C2CCC2)c1` [Example 92, (E)-3-(4-((E)-1-(Benzo[d]thiazol-5-yl)-2-cyclobutyl-2-(3-methoxyphenyl)vinyl)phenyl)acrylic acid]: in the experiment with MCF-7 cells, the “MCF7 Viability Assay Max Response” value was “++ (++ = a single % value ≧ 40%)” and the IC50 (as a rule, the concentration at which inhibition is half-maximal) is no more than 0.1 µM. At ER-α in MCF-7 cells, the Emax was no less than 40% and the DC50 was no more than 0.1 µM.

In the case of `COc1ccc(/C(=C(\c2ccc(/C=C/C(=O)O)cc2)c2ccc3scnc3c2)C2CCC2)cn1` [Example 93, (E)-3-(4-((E)-1-(Benzo[d]thiazol-5-yl)-2-cyclobutyl-2-(6-methoxypyridin-3-yl)vinyl)phenyl)acrylic acid], in the experiment on MCF-7 cells, the “MCF7 Viability Assay Max Response” value is “++ (++ = a single % value ≧ 40%)” and the IC50 was no more than 0.1 µM. Further, at ER-α in MCF-7 cells, the Emax is no less than 40% and the DC50 was no more than 0.1 µM.

For the molecule `O=C(O)/C=C/c1ccc(/C(=C(\c2ccccc2F)C2CCC2)c2ccc3scnc3c2)cc1` [Example 94, (E)-3-(4-((E)-1-(Benzo[d]thiazol-5-yl)-2-cyclobutyl-2-(2-fluorophenyl)vinyl)phenyl)acrylic acid], in the experiment with MCF-7 cells, the “MCF7 Viability Assay Max Response” value is “++ (++ = a single % value ≧ 40%)” and the half-maximal inhibitory concentration (IC50) was no more than 0.1 µM. On ER-α in MCF-7 cells, the Emax was no less than 40% and the DC50 is no more than 0.1 µM.

In the case of `N#Cc1ccc(/C(=C(\c2ccc(/C=C/C(=O)O)cc2)c2ccc3scnc3c2)C2CCC2)c(F)c1` [Example 95, (E)-3-(4-((E)-1-(Benzo[d]thiazol-5-yl)-2-(4-cyano-2-fluorophenyl)-2-cyclobutylvinyl)phenyl)acrylic acid], in the experiment on MCF-7 cells, the “MCF7 Viability Assay Max Response” value is “++ (++ = a single % value ≧ 40%)” and the IC50 is no more than 0.1 µM. For the same molecule, on ER-α in MCF-7 cells, the Emax was no less than 40% and the DC50 was no more than 0.1 µM.

On to `Cc1cc(C#N)ccc1/C(=C(\c1ccc(/C=C/C(=O)O)cc1)c1ccc2scnc2c1)C1CCC1` [Example 96, (E)-3-(4-((E)-1-(Benzo[d]thiazol-5-yl)-2-(4-cyano-2-methylphenyl)-2-cyclobutylvinyl)phenyl)acrylic acid], for which, in the experiment on MCF-7 cells, the “MCF7 Viability Assay Max Response” value is recorded as “++ (++ = a single % value ≧ 40%)” and the IC50 was no more than 0.1 µM. Also, at ER-α in MCF-7 cells, the Emax was no less than 40% and the DC50 was no more than 0.1 µM.

`COc1ccc(/C(=C(\c2ccc(/C=C/C(=O)O)cc2)c2ccc3scnc3c2)C2CCC2)c(C#N)c1` [Example 97, (E)-3-(4-((E)-1-(Benzo[d]thiazol-5-yl)-2-(2-cyano-4-methoxyphenyl)-2-cyclobutylvinyl)phenyl)acrylic acid]: in the experiment with MCF-7 cells, the “MCF7 Viability Assay Max Response” value is listed as “++ (++ = a single % value ≧ 40%)” and the IC50 was no more than 0.1 µM. Further, at ER-α in MCF-7 cells, the Emax is no less than 40% and the DC50 was no more than 0.1 µM.

Consider `Cc1cccnc1/C(=C(\c1ccc(/C=C/C(=O)O)cc1)c1ccc2scnc2c1)C1CCC1` [Example 98, (E)-3-(4-((E)-1-(Benzo[d]thiazol-5-yl)-2-cyclobutyl-2-(3-methylpyridin-2-yl)vinyl)phenyl)acrylic acid], for which, in the experiment on MCF-7 cells, the “MCF7 Viability Assay Max Response” value was “++ (++ = a single % value ≧ 40%)” and the half-inhibitory concentration (IC50) is no more than 0.1 µM. For the same molecule, on ER-α in MCF-7 cells, the Emax is no less than 40% and the DC50 is no more than 0.1 µM.

Consider `O=C(O)/C=C/c1ccc(/C(=C(\c2ncccc2F)C2CCC2)c2ccc3scnc3c2)cc1` [Example 99, (E)-3-(4-((E)-1-(Benzo[d]thiazol-5-yl)-2-cyclobutyl-2-(3-fluoropyridin-2-yl)vinyl)phenyl)acrylic acid], for which, in the experiment with MCF-7 cells, the “MCF7 Viability Assay Max Response” value is “++ (++ = a single % value ≧ 40%)” and the IC50 was no more than 0.1 µM. Moreover, on ER-α in MCF-7 cells, the Emax was no less than 40% and the DC50 was no more than 0.1 µM.

Consider `O=C(O)/C=C/c1ccc(/C(=C(\c2ncccc2Cl)C2CCC2)c2ccc3scnc3c2)cc1` [Example 100, (E)-3-(4-((E)-1-(Benzo[d]thiazol-5-yl)-2-(3-chloropyridin-2-yl)-2-cyclobutylvinyl)phenyl)acrylic acid], for which, in the experiment on MCF-7 cells, the “MCF7 Viability Assay Max Response” value is “++ (++ = a single % value ≧ 40%)” and the IC50 is no more than 0.1 µM. For the same molecule, at ER-α in MCF-7 cells, the Emax was no less than 40% and the DC50 is no more than 0.1 µM.

As to `CC/C(=C(/c1ccc(/C=C/C(=O)O)cc1)c1ccc2[nH]nc(F)c2c1)c1ccc(Cl)cc1C#N` [Example 101, (E)-3-(4-((E)-2-(4-Chloro-2-cyanophenyl)-1-(3-fluoro-1H-indazol-5-yl)but-1-en-1-yl)phenyl)acrylic acid], in the experiment on MCF-7 cells, the “MCF7 Viability Assay Max Response” value was “++ (++ = a single % value ≧ 40%)” and the 50% inhibitory concentration (IC50) is no more than 0.1 µM. Moreover, at ER-α in MCF-7 cells, the Emax was no less than 40% and the DC50 was no more than 0.1 µM.

On to `CC/C(=C(/c1ccc(/C=C/C(=O)O)cc1)c1ccc2[nH]nc(F)c2c1)c1ccc(F)cc1C#N` [Example 102, (E)-3-(4-((E)-2-(2-Cyano-4-fluorophenyl)-1-(3-fluoro-1H-indazol-5-yl)but-1-en-1-yl)phenyl)acrylic acid], for which, in the experiment on MCF-7 cells, the “MCF7 Viability Assay Max Response” value was “++ (++ = a single % value ≧ 40%)” and the IC50 is no more than 0.1 µM. Further, on ER-α in MCF-7 cells, the Emax is no less than 40% and the DC50 was no more than 0.1 µM.

Regarding `CC/C(=C(/c1ccc(/C=C/C(=O)O)cc1)c1ccc2[nH]nc(F)c2c1)c1ccc(C(F)(F)F)cc1C#N` [Example 103], in the experiment with MCF-7 cells, the “MCF7 Viability Assay Max Response” value is reported as “++ (++ = a single % value ≧ 40%)” and the IC50 was no more than 0.1 µM. At ER-α in MCF-7 cells, the Emax is no less than 40% and the DC50 was no more than 0.1 µM.

For the molecule `CC/C(=C(/c1ccc(/C=C/C(=O)O)cc1)c1ccc2[nH]nc(F)c2c1)c1ccc(C#N)cc1F` [Example 104, (E)-3-(4-((E)-2-(4-Cyano-2-fluorophenyl)-1-(3-fluoro-1H-indazol-5-yl)but-1-en-1-yl)phenyl)acrylic acid], in the experiment on MCF-7 cells, the “MCF7 Viability Assay Max Response” value is given as “++ (++ = a single % value ≧ 40%)” and the concentration for half-maximal inhibition (IC50) is no more than 0.1 µM. In addition, on ER-α in MCF-7 cells, the Emax is no less than 40% and the DC50 is no more than 0.1 µM.

`CC/C(=C(/c1ccc(/C=C/C(=O)O)cc1)c1ccc2[nH]nc(F)c2c1)c1ccc(C#N)cc1C` [Example 105]: in the experiment on MCF-7 cells, the “MCF7 Viability Assay Max Response” value is listed as “++ (++ = a single % value ≧ 40%)” and the 50% inhibitory concentration (IC50) was no more than 0.1 µM. In addition, on ER-α in MCF-7 cells, the Emax is no less than 40% and the DC50 is no more than 0.1 µM.

As for `CC/C(=C(/c1ccc(/C=C/C(=O)O)cc1)c1ccc2[nH]nc(F)c2c1)c1ccc(C#N)cc1Cl` [Example 106, (E)-3-(4-((E)-2-(2-Chloro-4-cyanophenyl)-1-(3-fluoro-1H-indazol-5-yl)but-1-en-1-yl)phenyl)acrylic acid], in the experiment on MCF-7 cells, the “MCF7 Viability Assay Max Response” value is recorded as “++ (++ = a single % value ≧ 40%)” and the IC50 was no more than 0.1 µM. For the same molecule, at ER-α in MCF-7 cells, the Emax was no less than 40% and the DC50 is no more than 0.1 µM.

With `CC/C(=C(/c1ccc(/C=C/C(=O)O)cc1)c1ccc2[nH]nc(F)c2c1)c1ccc(OC)cc1C#N` [Example 107], in the experiment on MCF-7 cells, the “MCF7 Viability Assay Max Response” value was “++ (++ = a single % value ≧ 40%)” and the half-maximal inhibitory concentration (IC50) was no more than 0.1 µM. In addition, at ER-α in MCF-7 cells, the Emax is no less than 40% and the DC50 was no more than 0.1 µM.

Consider `N#Cc1cc(Cl)ccc1/C(=C(\c1ccc(/C=C/C(=O)O)cc1)c1ccc2[nH]nc(F)c2c1)C1CCC1` [Example 108, (E)-3-(4-((E)-2-(4-Chloro-2-cyanophenyl)-2-cyclobutyl-1-(3-fluoro-1H-indazol-5-yl)vinyl)phenyl)acrylic acid], for which, in the experiment on MCF-7 cells, the “MCF7 Viability Assay Max Response” value is “++ (++ = a single % value ≧ 40%)” and the concentration for half-maximal inhibition (IC50) was no more than 0.1 µM. In addition, at ER-α in MCF-7 cells, the Emax was no less than 40% and the DC50 was no more than 0.1 µM.

For `N#Cc1cc(Cl)ccc1/C(=C(\c1ccc(/C=C/C(=O)O)cc1)c1ccc2[nH]ncc2c1)C1CCC1` [Example 109, (E)-3-(4-((E)-2-(4-Chloro-2-cyanophenyl)-2-cyclobutyl-1-(1H-indazol-5-yl)vinyl)phenyl)acrylic acid], in the experiment on MCF-7 cells, the “MCF7 Viability Assay Max Response” value was “++ (++ = a single % value ≧ 40%)” and the IC50 is no more than 0.1 µM. Also, on ER-α in MCF-7 cells, the Emax was no less than 40% and the DC50 was no more than 0.1 µM.

Regarding `CCOc1cc(C)c(/C(=C(\c2ccc(/C=C/C(=O)O)cc2)c2ccc3[nH]nc(F)c3c2)C2CCC2)cn1` [Example 110, (E)-3-(4-((E)-2-Cyclobutyl-2-(6-ethoxy-4-methylpyridin-3-yl)-1-(3-fluoro-1H-indazol-5-yl)vinyl)phenyl)acrylic acid], in the experiment with MCF-7 cells, the “MCF7 Viability Assay Max Response” value is given as “++ (++ = a single % value ≧ 40%)” and the IC50 was no more than 0.1 µM. In addition, on ER-α in MCF-7 cells, the Emax was no less than 40% and the DC50 is no more than 0.1 µM.
